{"source": "PubChem BioAssay (NCI)", "test_in_all_cases": "NCI-60 cell line screen, 384-well format", "key": {"[1]": {"test_system": "HCC-2998 colon"}, "[2]": {"test_system": "COLO 205 colon"}, "[3]": {"test_system": "NCI-H522 lung"}, "[4]": {"test_system": "SR leukemia"}, "[5]": {"test_system": "KM12 colon"}, "[6]": {"test_system": "CCRF-CEM leukemia"}, "[7]": {"test_system": "MDA-MB-468 breast"}, "[8]": {"test_system": "BT-549 breast"}, "[9]": {"test_system": "HL-60(TB) leukemia"}, "[10]": {"test_system": "MOLT-4 leukemia"}, "[11]": {"test_system": "NCI-H322M lung"}, "[12]": {"test_system": "HOP-92 NSCLC"}, "[13]": {"test_system": "CAKI-1 renal"}, "[14]": {"test_system": "LOX IMVI melanoma"}, "[15]": {"test_system": "SK-MEL-2 melanoma"}, "[16]": {"test_system": "NCI-H23 lung"}, "[17]": {"test_system": "RPMI-8226 leukemia"}, "[18]": {"test_system": "OVCAR-5 ovarian"}, "[19]": {"test_system": "M14 melanoma"}, "[20]": {"test_system": "MCF7 breast"}, "[21]": {"test_system": "SNB-75 CNS"}, "[22]": {"test_system": "K-562 leukemia"}, "[23]": {"test_system": "A498 renal"}, "[24]": {"test_system": "HCT-116 colon"}, "[25]": {"test_system": "NCI-H226 lung"}, "[26]": {"test_system": "SF-295 CNS"}, "[27]": {"test_system": "IGROV1 ovarian"}, "[28]": {"test_system": "U251 glioblastoma"}, "[29]": {"test_system": "HCT-15 colon"}, "[30]": {"test_system": "HS 578T breast"}, "[31]": {"test_system": "ACHN renal"}, "[32]": {"test_system": "SK-OV-3 ovarian"}, "[33]": {"test_system": "SN12C renal"}, "[34]": {"test_system": "UACC-62 melanoma"}, "[35]": {"test_system": "SF-539 CNS"}, "[36]": {"test_system": "A549 NSCLC"}, "[37]": {"test_system": "NCI-H460 NSCLC"}, "[38]": {"test_system": "OVCAR-4 ovarian"}, "[39]": {"test_system": "RXF 393 renal"}, "[40]": {"test_system": "T-47D breast"}, "[41]": {"test_system": "MDA-MB-435 melanoma"}, "[42]": {"test_system": "NCI/ADR-RES ovarian"}, "[43]": {"test_system": "MDA-MB-231 breast"}, "[44]": {"test_system": "SNB-19 CNS"}, "[45]": {"test_system": "UACC-257 melanoma"}, "[46]": {"test_system": "SF-268 CNS"}, "[47]": {"test_system": "EKVX NSCLC"}, "[48]": {"test_system": "HT29 colon"}, "[49]": {"test_system": "UO-31 renal"}, "[50]": {"test_system": "MALME-3M melanoma"}, "[51]": {"test_system": "786-0 renal"}, "[52]": {"test_system": "SK-MEL-5 melanoma"}, "[53]": {"test_system": "PC-3 prostate"}}, "note": "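At the GI50, growth is halved. TGI: concentration producing complete growth inhibition.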"}
{"compound": "CC(C)c1cc(-c2n[nH]c(=O)n2-c2ccc3c(ccn3C)c2)c(O)cc1O", "values": [{"measurement": "GI50", "setting": "[1]", "result": "< 10", "unit": "nM"}, {"measurement": "TGI", "setting": "[1]", "result": 15.6, "unit": "nM"}, {"measurement": "GI50", "setting": "[2]", "result": "< 10", "unit": "nM"}, {"measurement": "TGI", "setting": "[2]", "result": 56.7, "unit": "nM"}, {"measurement": "GI50", "setting": "[3]", "result": "< 10", "unit": "nM"}, {"measurement": "TGI", "setting": "[3]", "result": "< 10", "unit": "nM"}, {"measurement": "GI50", "setting": "[4]", "result": "< 10", "unit": "nM"}, {"measurement": "TGI", "setting": "[4]", "result": "< 10", "unit": "nM"}, {"measurement": "GI50", "setting": "[5]", "result": "< 10", "unit": "nM"}, {"measurement": "TGI", "setting": "[5]", "result": 84.9, "unit": "nM"}, {"measurement": "GI50", "setting": "[6]", "result": "< 10", "unit": "nM"}, {"measurement": "TGI", "setting": "[6]", "result": 15.2, "unit": "nM"}, {"measurement": "GI50", "setting": "[7]", "result": "< 10", "unit": "nM"}, {"measurement": "TGI", "setting": "[7]", "result": "< 10", "unit": "nM"}, {"measurement": "GI50", "setting": "[8]", "result": "< 10", "unit": "nM"}, {"measurement": "TGI", "setting": "[8]", "result": "< 10", "unit": "nM"}, {"measurement": "GI50", "setting": "[9]", "result": "< 10", "unit": "nM"}, {"measurement": "TGI", "setting": "[9]", "result": "< 10", "unit": "nM"}, {"measurement": "GI50", "setting": "[10]", "result": "< 10", "unit": "nM"}, {"measurement": "TGI", "setting": "[10]", "result": "< 10", "unit": "nM"}, {"measurement": "GI50", "setting": "[11]", "result": 19.9, "unit": "nM"}, {"measurement": "TGI", "setting": "[11]", "result": 16200, "unit": "nM"}, {"measurement": "GI50", "setting": "[12]", "result": 11.8, "unit": "nM"}, {"measurement": "TGI", "setting": "[12]", "result": 36.3, "unit": "nM"}, {"measurement": "GI50", "setting": "[13]", "result": 19.5, "unit": "nM"}, {"measurement": "TGI", "setting": "[13]", "result": 18000, "unit": "nM"}, {"measurement": "GI50", "setting": "[14]", "result": "< 10", "unit": "nM"}, {"measurement": "TGI", "setting": "[14]", "result": 20.7, "unit": "nM"}, {"measurement": "GI50", "setting": "[15]", "result": "< 10", "unit": "nM"}, {"measurement": "TGI", "setting": "[15]", "result": "< 10", "unit": "nM"}, {"measurement": "GI50", "setting": "[16]", "result": "< 10", "unit": "nM"}, {"measurement": "TGI", "setting": "[16]", "result": 23.8, "unit": "nM"}, {"measurement": "GI50", "setting": "[17]", "result": "< 10", "unit": "nM"}, {"measurement": "TGI", "setting": "[17]", "result": 12.9, "unit": "nM"}, {"measurement": "GI50", "setting": "[18]", "result": 21.8, "unit": "nM"}, {"measurement": "TGI", "setting": "[18]", "result": 13500, "unit": "nM"}, {"measurement": "GI50", "setting": "[19]", "result": "< 10", "unit": "nM"}, {"measurement": "TGI", "setting": "[19]", "result": 2690, "unit": "nM"}, {"measurement": "GI50", "setting": "[20]", "result": "< 10", "unit": "nM"}, {"measurement": "TGI", "setting": "[20]", "result": 16400, "unit": "nM"}, {"measurement": "GI50", "setting": "[21]", "result": "< 10", "unit": "nM"}, {"measurement": "TGI", "setting": "[21]", "result": 46, "unit": "nM"}, {"measurement": "GI50", "setting": "[22]", "result": "< 10", "unit": "nM"}, {"measurement": "TGI", "setting": "[22]", "result": 27, "unit": "nM"}, {"measurement": "GI50", "setting": "[23]", "result": 26.1, "unit": "nM"}, {"measurement": "TGI", "setting": "[23]", "result": 17200, "unit": "nM"}, {"measurement": "GI50", "setting": "[24]", "result": 18.8, "unit": "nM"}, {"measurement": "TGI", "setting": "[24]", "result": 10500, "unit": "nM"}, {"measurement": "GI50", "setting": "[25]", "result": 46.5, "unit": "nM"}, {"measurement": "TGI", "setting": "[25]", "result": 603, "unit": "nM"}, {"measurement": "GI50", "setting": "[26]", "result": 17, "unit": "nM"}, {"measurement": "TGI", "setting": "[26]", "result": 46.6, "unit": "nM"}, {"measurement": "GI50", "setting": "[27]", "result": "< 10", "unit": "nM"}, {"measurement": "TGI", "setting": "[27]", "result": 21.4, "unit": "nM"}, {"measurement": "GI50", "setting": "[28]", "result": "< 10", "unit": "nM"}, {"measurement": "TGI", "setting": "[28]", "result": 24.3, "unit": "nM"}, {"measurement": "GI50", "setting": "[29]", "result": "< 10", "unit": "nM"}, {"measurement": "TGI", "setting": "[29]", "result": 13100, "unit": "nM"}, {"measurement": "GI50", "setting": "[30]", "result": "< 10", "unit": "nM"}, {"measurement": "TGI", "setting": "[30]", "result": 61.5, "unit": "nM"}, {"measurement": "GI50", "setting": "[31]", "result": "< 10", "unit": "nM"}, {"measurement": "TGI", "setting": "[31]", "result": "> 100000", "unit": "nM"}, {"measurement": "GI50", "setting": "[32]", "result": 12.3, "unit": "nM"}, {"measurement": "TGI", "setting": "[32]", "result": 2440, "unit": "nM"}, {"measurement": "GI50", "setting": "[33]", "result": "< 10", "unit": "nM"}, {"measurement": "TGI", "setting": "[33]", "result": 36.7, "unit": "nM"}, {"measurement": "GI50", "setting": "[34]", "result": "< 10", "unit": "nM"}, {"measurement": "TGI", "setting": "[34]", "result": 31.6, "unit": "nM"}, {"measurement": "GI50", "setting": "[35]", "result": "< 10", "unit": "nM"}, {"measurement": "TGI", "setting": "[35]", "result": "< 10", "unit": "nM"}, {"measurement": "GI50", "setting": "[36]", "result": "< 10", "unit": "nM"}, {"measurement": "TGI", "setting": "[36]", "result": 14000, "unit": "nM"}, {"measurement": "GI50", "setting": "[37]", "result": "< 10", "unit": "nM"}, {"measurement": "TGI", "setting": "[37]", "result": "< 10", "unit": "nM"}, {"measurement": "GI50", "setting": "[38]", "result": "< 10", "unit": "nM"}, {"measurement": "TGI", "setting": "[38]", "result": "> 100000", "unit": "nM"}, {"measurement": "GI50", "setting": "[39]", "result": "< 10", "unit": "nM"}, {"measurement": "TGI", "setting": "[39]", "result": 11500, "unit": "nM"}, {"measurement": "GI50", "setting": "[40]", "result": 28.2, "unit": "nM"}, {"measurement": "TGI", "setting": "[40]", "result": 1570, "unit": "nM"}, {"measurement": "GI50", "setting": "[41]", "result": "< 10", "unit": "nM"}, {"measurement": "TGI", "setting": "[41]", "result": 22600, "unit": "nM"}, {"measurement": "GI50", "setting": "[42]", "result": 22.6, "unit": "nM"}, {"measurement": "TGI", "setting": "[42]", "result": 69.1, "unit": "nM"}, {"measurement": "GI50", "setting": "[43]", "result": 19.1, "unit": "nM"}, {"measurement": "TGI", "setting": "[43]", "result": 72, "unit": "nM"}, {"measurement": "GI50", "setting": "[44]", "result": 13.4, "unit": "nM"}, {"measurement": "TGI", "setting": "[44]", "result": 74.5, "unit": "nM"}, {"measurement": "GI50", "setting": "[45]", "result": 42.4, "unit": "nM"}, {"measurement": "TGI", "setting": "[45]", "result": 22600, "unit": "nM"}, {"measurement": "GI50", "setting": "[46]", "result": 15.4, "unit": "nM"}, {"measurement": "TGI", "setting": "[46]", "result": 28400, "unit": "nM"}, {"measurement": "GI50", "setting": "[47]", "result": 11.8, "unit": "nM"}, {"measurement": "TGI", "setting": "[47]", "result": 76.3, "unit": "nM"}, {"measurement": "GI50", "setting": "[48]", "result": 36.4, "unit": "nM"}, {"measurement": "TGI", "setting": "[48]", "result": 13400, "unit": "nM"}, {"measurement": "GI50", "setting": "[49]", "result": "< 10", "unit": "nM"}, {"measurement": "TGI", "setting": "[49]", "result": 11800, "unit": "nM"}, {"measurement": "GI50", "setting": "[50]", "result": "< 10", "unit": "nM"}, {"measurement": "TGI", "setting": "[50]", "result": "< 10", "unit": "nM"}, {"measurement": "GI50", "setting": "[51]", "result": "< 10", "unit": "nM"}, {"measurement": "TGI", "setting": "[51]", "result": 78.1, "unit": "nM"}, {"measurement": "GI50", "setting": "[52]", "result": "< 10", "unit": "nM"}, {"measurement": "TGI", "setting": "[52]", "result": 3690, "unit": "nM"}, {"measurement": "GI50", "setting": "[53]", "result": 10.2, "unit": "nM"}, {"measurement": "TGI", "setting": "[53]", "result": 52.7, "unit": "nM"}]}
